Values joined by “and” are separate entries in the source; they are usually repeats but may differ in a detail not shown here. Equal values may be shown once. Read-outs that look alike come from different tables or passages of the source.
Tests used:
[1] = system: CD-1 male mice; conditions: for Mortality by 72 h: oral gavage, n = 10
Description: This analysis was critical for robustly comparing their toxic effects, with a particular focus on mortality at equivalent molar concentrations.
CD-1 male mice obtained from Charles River Laboratories underwent a one-week acclimation period. They were housed under a 12-h day/night cycle, with unrestricted access to food and water. Before experimentation, mice were fasted for 15 h. […] Each treatment group consisted of 10 mice. Post-dosing, the mice were monitored at 6-h intervals over 72 h for signs of becoming moribund. An investigator blinded to the treatment groups conducted the moribund state assessment.

[2] = Phase 1 single ascending dose (SAD) pharmacokinetics incl. food effect; type: in vivo, human; conditions: for Tmax (h) / Tmax: N 6; for AUC(0-t) / AUC(0-inf) / Cmax / half-life / Tmax: human, plasma; for AUC(0-t) / AUC(0-inf) / Cmax / half-life: oral; for Tmax: po
Description: A randomized, double-blind, placebo-controlled Phase 1 trial (ClinicalTrials.gov identifier: NCT05484414) (02/08/2022) was conducted to assess the safety, tolerability, food effect, pharmacokinetics (PK), and pharmacodynamics (PD) of single and multiple ascending doses of SRP-001 (Quotient Sciences, Miami FL USA; Fig. 3h - k and Methods). The trial was conducted in accordance with the International Council for Harmonisation of Technical Requirements for Pharmaceuticals for Human Use (ICH), Guideline for GCP: Consolidated Guidance (E6), attained Institutional Review Board approval, and all applicable regulatory requirements for Phase 1, First in Human clinical trials. Safety measurements and plasma samples to determine PK parameters were collected throughout the study for all subjects and reviewed by the Safety Review Committee. PK stopping criteria were established to assure that systemic exposure to SRP-001 was less than or equal to the systemic exposure achieved at the NOAEL doses in the 28-day repeat-dose toxicology studies in the rat and dog. The trial’s Safety Advisory Committee has approved the publication of the Phase 1 results.
SRP-001 was administered as an oral nanosuspension to 56 healthy volunteers across five Single Ascending Dose (SAD) and two Multiple Ascending Dose (MAD) cohorts, with 42 subjects receiving SRP-001 and 14 receiving a placebo.
A two-part randomized, double-blind, placebo-controlled Phase 1 trial was conducted to assess the safety, tolerability, PK and PD of SRP-001 ascending doses (Quotient Sciences, Miami, FL, USA). The study was conducted in accordance with the International Council for Harmonisation of Technical Requirements for Pharmaceuticals for Human Use (ICH), Guideline for GCP: Consolidated Guidance (E6), and applicable regulatory requirements(s) including clinical research guidelines established by the Basic Principles defined in the U.S. 21 CFR Parts 50, 56, and 312 and the principles enunciated in the Declaration of Helsinki (revised version Fortaleza 2013). The clinical protocol and informed consent form were reviewed and approved by an Institutional Review Board (IRB; Advarra IRB, 6100 Merriweather Drive, Suite 600, Columbia, MD 21,044; Quotient Protocol No. SRP-101 and Quotient Sciences Study No. QSC205130; Quotient Sciences Miami, 3898 NW 7th Street, Miami, FL 33,126.). The study comprises a SAD (Part 1) assessment that includes a food effect assessment that contributes data to inform a subsequent MAD (Part 2) dose-ranging study. Safety measurements were collected throughout the study for all subjects. Blood samples were collected to determine the PK parameters of SRP-001 (ClinicalTrials.gov identifier: NCT05484414) (02/08/2022).
NHVs were dosed in the fasted state. The calorie/fat content of meals was not required to be controlled. Subjects were provided with a standardized menu. Subjects were provided with a light snack and then fasted from all food and drink (except water) for a minimum of 10 h on the day prior to dosing until approximately 4 h post-dose, at which time lunch was provided. An evening meal was provided at approximately 10 h post-dose/post-morning dose and an evening snack at approximately 14 h post-morning dose. Food effect was studied in the cohort receiving 900 mg SRP-001 in the fed state. A standard high-fat breakfast was given 30 min before dosing. On Day -1, these NHVs were provided with a light snack and fasted from all food and drink (except water) until the following morning, when they were provided with a standard high-fat breakfast. The breakfast had to be consumed over a maximum period of 25 min, with dosing occurring 30 min after the start of breakfast. Subjects were encouraged to eat their meal evenly over the 25 min period. It was acknowledged that some subjects took less time to eat, but dosing still occurred 30 min after the start of breakfast. Subjects had to consume at least 90% to be eligible for dosing. […]

[3] = 300 mg, Cohort 1, Regimen A, Fasted, geometric mean (geometric CV%)
[4] = 600 mg, Cohort 2, Regimen B, Fasted, geometric mean (geometric CV%)
[5] = 900 mg, Cohort 3, Regimen C, Fasted, geometric mean (geometric CV%)
[6] = 900 mg, Cohort 3, Regimen D, Fed, geometric mean (geometric CV%)
[7] = 2000 mg, Cohort 4, Regimen E, Fasted, geometric mean (geometric CV%)
[8] = relative bioavailability, Cohort 4, Regimen E, text b207 under 900 mg fed state

Q: For `CC(=O)Nc1ccc(O)cc1` [ApAP, acetaminophen, reference compound], which “Mortality by 72 h” value ([1]; 1984 (ApAP 300 mg/kg)) is on record?
A: 1/10

Q: And the “Mortality by 72 h” value ([1]; 3969 (ApAP 600 mg/kg))?
A: 3/10

Q: What about the “Mortality by 72 h” value ([1]; 5954 (ApAP 900 mg/kg)) of the same molecule?
A: 7/10

Q: What about the “Mortality within 72 h” value ([1]; increasing equimolar doses, highest mortality reached) of the same molecule?
A: 70%

Q: Which “Geometric mean AUC(0–24) as share of the exposure limits defined in the protocol” value ([2]; 2000 mg, fasted) does the source give for `CCN(CC)C(=O)c1ccccc1S(=O)(=O)NCC(=O)Nc1ccc(O)cc1` [SRP-001, N,N-diethyl-2-[[2-(4-hydroxyanilino)-2-oxo-ethyl]sulfamoyl]benzamide] here?
A: 31%

Q: And the “Geometric mean Cmax as share of the exposure limits defined in the protocol” value ([2]; 2000 mg, fasted)?
A: 34%

Q: What about the “Dose proportionality of geometric mean Cmax and AUC(0-∞)” value ([2]; 300 to 2000 mg) of the same molecule?
A: dose-proportional or super-proportional increase

Q: What about the “T1/2 (h)” value ([2]; Cohort 1, Regimen A, 300 mg, Fasted, geometric mean (geometric CV%)) of the same molecule?
A: 2.38 (65.9) h

Q: And the “Tmax (h)” value ([2]; Cohort 2, Regimen B, 600 mg oral suspension, Fasted)?
A: 1 (1.00–2.00) h

Q: What about the “T1/2 (h)” value ([2]; Cohort 2, Regimen B, 600 mg, Fasted, geometric mean (geometric CV%)) of the same molecule?
A: 5.04 (107.8) h

Q: And the “Tmax (h)” value ([2]; Cohort 3, Period 2: Regimen D, 900 mg oral suspension, Fed)?
A: 1 (1.00–8.00) h

Q: What about the “T1/2 (h)” value ([2]; Cohort 3, Regimen C, 900 mg, Fasted, geometric mean (geometric CV%)) of the same molecule?
A: 3.26 (62.1) h

Q: What about the “T1/2 (h)” value ([2]; Cohort 3, Regimen D, 900 mg, Fed, geometric mean (geometric CV%)) of the same molecule?
A: 3.79 (74.5) h

Q: What about the “Tmax (h)” value ([2]; Cohort 4, Regimen E, 2000 mg oral suspension, Fasted) of the same molecule?
A: 1 (1.00–2.00) h

Q: And the “T1/2 (h)” value ([2]; Cohort 4, Regimen E, 2000 mg, Fasted, geometric mean (geometric CV%))?
A: 5.96 (65.9) h

Q: What about the “Increase of geometric mean AUC(0–24)” value ([2]; dose from 300 to 600 mg) of the same molecule?
A: 3.5 fold

Q: What about the “Increase of geometric mean Cmax” value ([2]; dose from 300 to 600 mg) of the same molecule?
A: 2.6 fold

Q: What about the “Increase of geometric mean AUC(0–24)” value ([2]; dose from 600 to 900 mg) of the same molecule?
A: 1.2 fold

Q: What about the “Increase of geometric mean Cmax” value ([2]; dose from 600 to 900 mg) of the same molecule?
A: 1.6 fold

Q: What about the “Increase of geometric mean Cmax” value ([2]; dose from 900 to 2000 mg (2.2-fold increase in dose)) of the same molecule?
A: 1.7 fold

Q: What about the AUC(0-t) ([2]; 300 mg, Cohort 1, Regimen A, 300 mg, Fasted, geometric mean (geometric CV%), read-out: AUC0-24) of the same molecule?
A: 1620 ng·h/mL

Q: What about the AUC(0-t) ([2]; 300 mg, Cohort 1, Regimen A, 300 mg, Fasted, geometric mean (geometric CV%), read-out: AUC0-last) of the same molecule?
A: 1320 ng·h/mL

Q: What about the AUC(0-inf) [2, 3] of the same molecule?
A: 1630 ng·h/mL

Q: What about the Cmax [2, 3] of the same molecule?
A: 665 ng/mL

Q: What about the half-life [2, 3] of the same molecule?
A: 2.4 h

Q: What about the AUC(0-t) ([2]; 300 mg, fasted, geometric mean, read-out: AUC(0–48)) of the same molecule?
A: 1630 ng·h/mL

Q: And the AUC(0-t) ([2]; 600 mg, Cohort 2, Regimen B, 600 mg, Fasted, geometric mean (geometric CV%), read-out: AUC0-24)?
A: 5660 ng·h/mL

Q: What about the AUC(0-t) ([2]; 600 mg, Cohort 2, Regimen B, 600 mg, Fasted, geometric mean (geometric CV%), read-out: AUC0-last) of the same molecule?
A: 4940 ng·h/mL

Q: And the AUC(0-inf) [2, 4]?
A: 5840 ng·h/mL

Q: And the Cmax [2, 4]?
A: 1740 ng/mL

Q: What about the half-life [2, 4] of the same molecule?
A: 5 h

Q: What about the AUC(0-t) ([2]; 900 mg, Cohort 3, Regimen C, 900 mg, Fasted, geometric mean (geometric CV%), read-out: AUC0-24) of the same molecule?
A: 6870 ng·h/mL

Q: And the AUC(0-t) ([2]; 900 mg, Cohort 3, Regimen C, 900 mg, Fasted, geometric mean (geometric CV%), read-out: AUC0-last)?
A: 6810 ng·h/mL

Q: And the AUC(0-inf) [2, 5]?
A: 6970 ng·h/mL

Q: What about the Cmax [2, 5] of the same molecule?
A: 2700 ng/mL

Q: What about the half-life [2, 5] of the same molecule?
A: 3.3 h

Q: What about the AUC(0-t) ([2]; 900 mg, Cohort 3, Regimen D, 900 mg, Fed, geometric mean (geometric CV%), read-out: AUC0-24) of the same molecule?
A: 6250 ng·h/mL

Q: And the AUC(0-t) ([2]; 900 mg, Cohort 3, Regimen D, 900 mg, Fed, geometric mean (geometric CV%), read-out: AUC0-last)?
A: 6130 ng·h/mL

Q: What about the AUC(0-inf) [2, 6] of the same molecule?
A: 5910 ng·h/mL

Q: What about the Cmax [2, 6] of the same molecule?
A: 1200 ng/mL

Q: What about the half-life [2, 6] of the same molecule?
A: 3.8 h

Q: What about the AUC(0-t) ([2]; 2000 mg, Cohort 4, Regimen E, 2000 mg, Fasted, geometric mean (geometric CV%), read-out: AUC0-24) of the same molecule?
A: 18900 ng·h/mL

Q: And the AUC(0-t) ([2]; 2000 mg, Cohort 4, Regimen E, 2000 mg, Fasted, geometric mean (geometric CV%), read-out: AUC0-last)?
A: 19100 ng·h/mL

Q: What about the AUC(0-inf) [2, 7] of the same molecule?
A: 19600 ng·h/mL

Q: What about the Cmax [2, 7] of the same molecule?
A: 4590 ng/mL

Q: And the half-life [2, 7]?
A: 6 h

Q: What about the Tmax ([2]; 300 mg, Cohort 1, Regimen A, 300 mg oral suspension, Fasted) of the same molecule?
A: 1 h

Q: And the Tmax ([2]; 600 mg, Cohort 2, Regimen B, 600 mg oral suspension, Fasted)?
A: 1 to 2 h

Q: What about the Tmax ([2]; 900 mg, Cohort 3, Period 1: Regimen C, 900 mg oral suspension, Fasted) of the same molecule?
A: 1 h

Q: And the Tmax ([2]; 900 mg, Cohort 3, Period 2: Regimen D, 900 mg oral suspension, Fed)?
A: 1 to 8 h

Q: And the Tmax ([2]; 2000 mg, Cohort 4, Regimen E, 2000 mg oral suspension, Fasted)?
A: 1 to 2 h

Q: What about the “Frel AUC(0- last) (%)” value [2, 8] of the same molecule?
A: 98.4% and 98.4a (16.3) %

Q: And the “Frel AUC(0-inf) (%)” value [2, 8]?
A: 101% and 101a (20.3) %

Q: And the “Frel AUC(0–24) (%)” value [2, 8]?
A: 99.2% and 99.2a (19.0) %

Q: And the “Frel Cmax (%)” value [2, 8]?
A: 48.4% and 48.4a (21.9) %
